Assay results as given in PMC4666306 (European journal of medicinal chemistry, 2015).

Tests used:
[1] = test system: BaF3 cells transformed with FLT3-ITD containing gatekeeper (F691L) mutation; details: 48 h post treatment
[2] = test system: BaF3 cells transformed with FLT3-ITD containing activation loop (D835V) mutation; details: 48 h post treatment

## Fc1ccc(-c2cnc3cc(-c4ccco4)ccn23)cc1 [Compound 21, 3-(4-Fluorophenyl)-7-(furan-2-yl)imidazo[1,2-a]pyridine]
[1]
  GI50 +ITD F691L: ineffective
[2]
  GI50 +ITD D835V: ineffective
